Data from BindingDB's records for doi:10.1021/jm00210a006 (1979).
Where “and” joins values, the source holds several entries; their conditions need not be identical. Equal values may be shown once.

How the values were obtained:
[1] = target: Plasminogen (Homo sapiens, UniProt P00747); experiment: Competitive inhibition of esterase activity of human plasmin assessed as assessed as decrease in p-nitrophenol production using N-Z-L-Tyr-ONp as substrate by spectrophotometric analysis
[2] = target: T1, Complement C1s subcomponent (Homo sapiens, UniProt P09871); experiment: Competitive inhibition of esterase activity of human activated C1s subunit of first complement component assessed as decrease in p-nitrophenol production using N-Z-L-Tyr-ONp as substrate by spectrophotometric analysis
T1 sequence (P09871 whole entry): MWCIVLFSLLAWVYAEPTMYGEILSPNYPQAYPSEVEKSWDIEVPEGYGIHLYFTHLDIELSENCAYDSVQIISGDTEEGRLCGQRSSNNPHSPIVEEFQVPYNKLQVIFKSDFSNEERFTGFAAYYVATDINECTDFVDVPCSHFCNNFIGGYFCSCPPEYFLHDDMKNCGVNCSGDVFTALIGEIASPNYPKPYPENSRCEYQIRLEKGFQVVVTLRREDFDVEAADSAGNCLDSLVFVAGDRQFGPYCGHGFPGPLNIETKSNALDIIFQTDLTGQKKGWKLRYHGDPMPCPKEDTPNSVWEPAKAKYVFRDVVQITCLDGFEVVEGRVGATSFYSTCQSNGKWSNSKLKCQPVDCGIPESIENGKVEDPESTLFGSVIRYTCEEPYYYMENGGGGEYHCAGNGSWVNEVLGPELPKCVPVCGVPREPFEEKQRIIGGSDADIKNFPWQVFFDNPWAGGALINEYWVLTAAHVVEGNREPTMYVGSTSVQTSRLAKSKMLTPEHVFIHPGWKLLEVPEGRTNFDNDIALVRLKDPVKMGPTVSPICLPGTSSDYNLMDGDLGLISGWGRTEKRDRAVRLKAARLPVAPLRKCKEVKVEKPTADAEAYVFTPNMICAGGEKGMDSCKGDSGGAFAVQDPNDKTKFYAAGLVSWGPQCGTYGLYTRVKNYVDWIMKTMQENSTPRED

[3] = target: T1, Complement C1s subcomponent; experiment: Competitive inhibition of esterase activity of human activated C1s subunit of first complement component assessed as decrease in p-nitrophenol production using N-Z-L-Lys-ONp as substrate by spectrophotometric analysis

Sequence of Plasminogen (P00747 97-580 limits assumed): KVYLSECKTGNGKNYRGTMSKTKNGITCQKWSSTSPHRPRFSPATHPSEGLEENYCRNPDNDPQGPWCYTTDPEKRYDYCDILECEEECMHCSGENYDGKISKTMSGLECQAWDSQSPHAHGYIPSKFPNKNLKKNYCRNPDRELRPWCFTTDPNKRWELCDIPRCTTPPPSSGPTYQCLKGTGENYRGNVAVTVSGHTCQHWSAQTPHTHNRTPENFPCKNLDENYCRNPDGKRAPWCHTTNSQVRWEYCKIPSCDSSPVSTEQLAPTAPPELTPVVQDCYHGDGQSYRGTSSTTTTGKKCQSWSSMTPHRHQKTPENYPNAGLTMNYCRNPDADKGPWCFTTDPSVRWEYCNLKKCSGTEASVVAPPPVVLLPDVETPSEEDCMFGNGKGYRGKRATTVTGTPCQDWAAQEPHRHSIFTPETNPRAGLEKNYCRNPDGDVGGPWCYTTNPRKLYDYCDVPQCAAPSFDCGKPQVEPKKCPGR
Sequence of Plasminogen (P00747 581-810 limits assumed): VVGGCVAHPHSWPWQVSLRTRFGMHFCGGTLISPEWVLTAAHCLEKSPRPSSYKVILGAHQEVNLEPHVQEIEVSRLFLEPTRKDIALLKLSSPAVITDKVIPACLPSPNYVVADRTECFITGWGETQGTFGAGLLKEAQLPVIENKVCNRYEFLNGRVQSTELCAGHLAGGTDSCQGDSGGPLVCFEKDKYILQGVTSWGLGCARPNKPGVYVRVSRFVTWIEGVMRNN

Row | SMILES | Ki [2] | other results
1 | N=C(N)c1cccc(Cc2ccccc2)c1 |  | Ki [1]: 630 µM
2 | N=C(N)c1cccc(N)c1 |  | Ki [1]: 125 µM and 501 µM and 100 µM and 316 µM
3 | Cc1cc(C)cc(C(=N)N)c1 | 630 µM and 250 µM and 79 µM | 
4 | N=C(N)c1ccc(CC(=O)C(=O)O)cc1 | 158 µM and 125 µM and 99.9 µM and 79.4 µM | 
5 | N=C(N)c1cccc(OCCCOc2ccccc2)c1 | 12.5 µM and 15.8 µM and 20 µM and 10 µM | 
6 | N=C(N)c1cccc(CC(=O)C(=O)O)c1 |  | Ki [3]: 2510 µM

The next lines start with results.

Row | Ki [2] | SMILES | other results
7 | 160 µM | COc1cccc(C(=N)N)c1 | 
8 | 9990 µM and 1600 µM and 4000 µM and 6300 µM | Cc1ccc(C(=N)N)cc1C | 
9 | 100 µM | N=C(N)c1cccc(Br)c1 | 
